Assay results reported in US20180353462A1, “[…] AGENTS […] FLAVONOID DERIVATIVES TARGETING KINASES, SIRTUINS AND ONCOGENIC AGENTS FOR THE TREATMENT OF CANCERS” (priority 2015, published 2018).

test system: NCI-H69 (Small lung); assay: WST-1 anticancer cell proliferation assay, NCI-H69; assay type: cell-based; settings: 72 hours
Method: Bioactivity of the above-described compounds has been verified by an anticancer cell proliferation assay using the WST-1 (4-[3-(4-iodophenyl)-2-(4-nitrophenyl)-2H-5-tetrazolio]-1, 3-benzene disulfonate) colorimetric assay by Roche Life Sciences®. Anticancer activity was tested against several standard cancer cell lines including brain, breast, Kaposi sarcoma, leukemia, lung, melanoma, tenosynovial giant cell tumor, ovarian, pancreatic, colon and prostate cancer. Cells were trypsinized and plated into 96 well plates in 50 μl of media and incubated overnight. The next day approximately 18 hours after plating, 50 μl of media containing the required flavonoid-based pharmaceutical composition was added per well. Cells were plated at a density so that 72 hours post drug addition, the cells will be in log phase (500)-2000 cells/well). The compounds and extracts were solubilized in Dimethyl sulfoxide (DMSO). The cells are allowed to proliferate for 72 hours 37° C. in humidified atmosphere of 5% CO2. The experiment is terminated using WST-1 (Roche®) 10 μl per well and absorbance is read at 450 nm %690 nm. The effect of drugs on growth is assessed as percent of cell viability. The IC50 values were determined from the extract dose versus control growth curves using Graphpad Prism® software. All experiments were carried out in duplicate and the mean results determined.

Structure (SMILES) | IC50 [µM]
COc1cc(-c2cc(=O)c3c(O)cc(O)c(C/C=C(\C)CCC=C(C)C)c3o2)ccc1O [FBL-03C] | 18
COc1cc(-c2cc(=O)c3c(O)c(CC=C(C)C)c(O)cc3o2)ccc1O [FBL-03B] | 11
COc1cc(-c2cc(=O)c3c(O)cc(O)c(CC=C(C)C)c3o2)ccc1O [FBL-03G] | 9.5
COc1cc(-c2cc(=O)c3c(O)c(C/C=C(\C)CCC=C(C)C)c(O)cc3o2)ccc1O [FBL-03A] | 16

biological target: T1, EPHB6 (Homo sapiens, UniProt O15197); assay: Kinase competition binding assay, EPHB6; settings: Table 1 kinase panel
T1 construct: made in house
T1 sequence (O15197 32-1021): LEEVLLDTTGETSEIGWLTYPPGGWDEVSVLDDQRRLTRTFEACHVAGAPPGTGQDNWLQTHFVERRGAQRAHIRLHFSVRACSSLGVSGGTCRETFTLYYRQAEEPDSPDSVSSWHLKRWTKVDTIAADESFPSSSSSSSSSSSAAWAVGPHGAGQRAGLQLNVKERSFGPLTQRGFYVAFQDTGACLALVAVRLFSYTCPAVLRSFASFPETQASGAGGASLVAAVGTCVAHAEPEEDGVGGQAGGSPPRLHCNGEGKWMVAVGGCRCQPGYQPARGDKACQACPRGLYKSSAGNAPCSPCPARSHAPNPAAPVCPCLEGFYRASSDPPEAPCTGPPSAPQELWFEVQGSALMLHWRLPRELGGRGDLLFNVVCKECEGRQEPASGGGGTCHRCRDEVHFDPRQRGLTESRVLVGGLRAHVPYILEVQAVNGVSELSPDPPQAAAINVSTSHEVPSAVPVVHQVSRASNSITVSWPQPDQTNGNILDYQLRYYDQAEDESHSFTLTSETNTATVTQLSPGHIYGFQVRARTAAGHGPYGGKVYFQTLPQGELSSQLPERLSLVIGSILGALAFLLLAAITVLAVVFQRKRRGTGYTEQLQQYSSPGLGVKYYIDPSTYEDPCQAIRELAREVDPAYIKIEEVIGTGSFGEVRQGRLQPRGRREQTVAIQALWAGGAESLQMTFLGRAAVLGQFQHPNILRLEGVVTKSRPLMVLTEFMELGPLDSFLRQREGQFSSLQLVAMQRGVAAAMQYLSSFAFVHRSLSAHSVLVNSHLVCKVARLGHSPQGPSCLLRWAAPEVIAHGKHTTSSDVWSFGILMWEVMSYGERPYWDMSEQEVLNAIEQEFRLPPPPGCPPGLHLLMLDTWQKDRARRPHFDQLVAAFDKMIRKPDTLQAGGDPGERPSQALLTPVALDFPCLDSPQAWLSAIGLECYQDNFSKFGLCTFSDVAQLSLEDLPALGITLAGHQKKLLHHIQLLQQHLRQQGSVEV
Method: (§1) Cannabis flavonoids and their analogs were subjected to kinase inhibition assay. The compounds were first screened at a single concentration of 10 μM in the primary assay. […]. To determine the kd or IC50 values, competition binding assays were established, authenticated and executed as described previously. Fabian et al., “A Small Molecule-Kinase Interaction Map For Clinical Kinase Inhibitors.”, Nat Biotechnol, 23(3):329-36, Epub (2005). See also, Karaman et al., “A Quantitative Analysis Of Kinase Inhibitor Selectivity”, Nat. Biotechnol. […] For most assays, kinases were fused to T7 phage strains (Fabian, supra) and for the other assays, kinases were produced in HEK-293 cells after which they were tagged with DNA for quantitative PCR detection. In general, full-length constructs were used for small, single domain kinases, and catalytic domain constructs for large multi-domain kinases. The binding assays utilized streptavidin-coated magnetic beads treated with biotinylated small molecule ligands for 30 minutes at room temperature which generated affinity resins for the kinase assays. The liganded beads were blocked with excess biotin and washed with blocking buffer (SeaBlock (Pierce), 1% BSA, 0.05% Tween 20, 1 mM DTT) to remove unbound ligand and to reduce non-specific phage binding. […] Test compounds were prepared as 40× stocks in 100% DMSO and diluted directly into the assay (Final DMSO concentration=2.5%). All reactions were performed in polypropylene 384-well plates in a final volume of 0.04 ml. […] The beads were then re-suspended in elution buffer (1×PBS, 0.05% Tween 20, 0.5 μM non-biotinylated affinity ligand) and incubated at room temperature with shaking for 30 minutes. The kinase concentration in the eluates was measured by quantitative PCR. An illustration of the kinase interaction process is presented below. Kd/IC50 values were determined using a standard dose response curve using the hill equation. Curves were fitted using a non-linear least square fit with the Levenberg-Marquardt algorithm.
(§2) The compound(s) were screened at 10 μM and results for primary screen binding interactions are reported as ‘% Ctrl’, where lower numbers indicate stronger hits in the matrix.

Structure (SMILES) | IC50 [nM]
COc1cc(-c2cc(=O)c3c(O)cc(O)c(C/C=C(\C)CCC=C(C)C)c3o2)ccc1O [FBL-03C] | 270
COc1cc(-c2cc(=O)c3c(O)c(CC=C(C)C)c(O)cc3o2)ccc1O [FBL-03B] | > 1000
COc1cc(-c2cc(=O)c3c(O)cc(O)c(CC=C(C)C)c3o2)ccc1O [FBL-03G] | > 1000
COc1cc(-c2cc(=O)c3c(O)c(C/C=C(\C)CCC=C(C)C)c(O)cc3o2)ccc1O [FBL-03A] | > 20000
COc1ccc(-c2cc(=O)c3c(O)c(C/C=C(\C)CCC=C(C)C)c(O)cc3o2)cc1OC [FBL-03D] | > 30000

biological target: T2, FMS/CSF1R (Homo sapiens, UniProt P07333); assay: Kinase competition binding assay, FMS/CSF1R; settings: Table 1 kinase panel
T2 construct: made in house
T2 sequence (P07333 20-972): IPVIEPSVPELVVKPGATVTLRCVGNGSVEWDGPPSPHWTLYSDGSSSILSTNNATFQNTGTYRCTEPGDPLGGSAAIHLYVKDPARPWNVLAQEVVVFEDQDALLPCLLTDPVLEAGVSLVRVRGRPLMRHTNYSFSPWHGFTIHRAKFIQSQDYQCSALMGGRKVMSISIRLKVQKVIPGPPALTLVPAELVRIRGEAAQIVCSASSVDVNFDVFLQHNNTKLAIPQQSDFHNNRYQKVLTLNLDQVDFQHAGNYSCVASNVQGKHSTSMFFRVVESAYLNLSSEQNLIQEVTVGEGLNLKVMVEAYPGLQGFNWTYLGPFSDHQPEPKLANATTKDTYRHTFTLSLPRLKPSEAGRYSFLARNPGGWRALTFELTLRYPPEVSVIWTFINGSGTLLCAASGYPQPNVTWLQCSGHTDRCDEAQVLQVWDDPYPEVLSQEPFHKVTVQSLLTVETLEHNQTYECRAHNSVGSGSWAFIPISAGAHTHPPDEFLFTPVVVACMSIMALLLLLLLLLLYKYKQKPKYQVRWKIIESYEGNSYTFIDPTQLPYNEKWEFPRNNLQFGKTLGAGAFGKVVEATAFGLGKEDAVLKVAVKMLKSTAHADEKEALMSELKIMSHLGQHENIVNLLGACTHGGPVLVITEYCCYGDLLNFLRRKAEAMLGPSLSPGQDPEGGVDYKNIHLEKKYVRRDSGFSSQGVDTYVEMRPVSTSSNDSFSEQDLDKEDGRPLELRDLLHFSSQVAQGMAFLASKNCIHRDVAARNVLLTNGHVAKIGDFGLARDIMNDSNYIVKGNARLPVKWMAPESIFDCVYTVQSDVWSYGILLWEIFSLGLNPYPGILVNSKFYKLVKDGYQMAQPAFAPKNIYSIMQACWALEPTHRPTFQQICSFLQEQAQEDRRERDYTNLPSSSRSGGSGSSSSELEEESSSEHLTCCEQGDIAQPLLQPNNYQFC
Method: as §1, §2

Structure (SMILES) | IC50 [nM]
COc1cc(-c2cc(=O)c3c(O)cc(O)c(C/C=C(\C)CCC=C(C)C)c3o2)ccc1O [FBL-03C] | 1200
COc1cc(-c2cc(=O)c3c(O)c(CC=C(C)C)c(O)cc3o2)ccc1O [FBL-03B] | 199
COc1cc(-c2cc(=O)c3c(O)cc(O)c(CC=C(C)C)c3o2)ccc1O [FBL-03G] | 4
COc1cc(-c2cc(=O)c3c(O)c(C/C=C(\C)CCC=C(C)C)c(O)cc3o2)ccc1O [FBL-03A] | 1500
COc1ccc(-c2cc(=O)c3c(O)c(C/C=C(\C)CCC=C(C)C)c(O)cc3o2)cc1OC [FBL-03D] | > 30000

biological target: T3, PIM-3 (Homo sapiens, UniProt Q86V86); assay: Kinase competition binding assay, PIM-3; settings: Table 1 kinase panel
T3 construct: full-length constructs were used for small, single domain kinases; T7 phage fusion (most assays) or DNA tag for qPCR (HEK-293-made kinases); made in house
Method: as §1, §2

Structure (SMILES) | IC50 [nM]
COc1cc(-c2cc(=O)c3c(O)cc(O)c(C/C=C(\C)CCC=C(C)C)c3o2)ccc1O [FBL-03C] | > 1000
COc1cc(-c2cc(=O)c3c(O)c(CC=C(C)C)c(O)cc3o2)ccc1O [FBL-03B] | 173
COc1cc(-c2cc(=O)c3c(O)cc(O)c(CC=C(C)C)c3o2)ccc1O [FBL-03G] | 35
COc1cc(-c2cc(=O)c3c(O)c(C/C=C(\C)CCC=C(C)C)c(O)cc3o2)ccc1O [FBL-03A] | > 20000
COc1ccc(-c2cc(=O)c3c(O)c(C/C=C(\C)CCC=C(C)C)c(O)cc3o2)cc1OC [FBL-03D] | > 30000

biological target: T4, MELK (Homo sapiens, UniProt Q14680); assay: Kinase competition binding assay, MELK; settings: Table 1 kinase panel
T4 construct: made in house
T4 sequence (Q14680 whole entry): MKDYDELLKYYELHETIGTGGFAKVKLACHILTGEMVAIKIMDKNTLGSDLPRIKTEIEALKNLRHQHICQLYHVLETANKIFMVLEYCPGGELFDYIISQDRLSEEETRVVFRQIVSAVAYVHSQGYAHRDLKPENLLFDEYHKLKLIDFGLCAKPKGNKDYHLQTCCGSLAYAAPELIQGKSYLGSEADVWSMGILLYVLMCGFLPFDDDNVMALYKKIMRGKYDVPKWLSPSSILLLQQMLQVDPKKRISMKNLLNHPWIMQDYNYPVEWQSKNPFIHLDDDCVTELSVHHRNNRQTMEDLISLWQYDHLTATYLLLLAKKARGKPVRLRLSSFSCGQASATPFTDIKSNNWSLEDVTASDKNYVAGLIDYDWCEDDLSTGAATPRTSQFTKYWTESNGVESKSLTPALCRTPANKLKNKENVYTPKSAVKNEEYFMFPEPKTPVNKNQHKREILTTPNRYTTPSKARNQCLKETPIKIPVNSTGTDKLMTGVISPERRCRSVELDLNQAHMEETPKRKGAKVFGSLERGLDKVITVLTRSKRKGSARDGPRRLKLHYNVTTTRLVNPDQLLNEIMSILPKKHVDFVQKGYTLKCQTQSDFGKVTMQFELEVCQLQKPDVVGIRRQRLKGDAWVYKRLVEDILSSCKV
Method: as §1, §2

Structure (SMILES) | IC50 [nM]
COc1cc(-c2cc(=O)c3c(O)cc(O)c(C/C=C(\C)CCC=C(C)C)c3o2)ccc1O [FBL-03C] | > 1000
COc1cc(-c2cc(=O)c3c(O)c(CC=C(C)C)c(O)cc3o2)ccc1O [FBL-03B] | 232
COc1cc(-c2cc(=O)c3c(O)cc(O)c(CC=C(C)C)c3o2)ccc1O [FBL-03G] | 105
COc1cc(-c2cc(=O)c3c(O)c(C/C=C(\C)CCC=C(C)C)c(O)cc3o2)ccc1O [FBL-03A] | > 20000
COc1ccc(-c2cc(=O)c3c(O)c(C/C=C(\C)CCC=C(C)C)c(O)cc3o2)cc1OC [FBL-03D] | > 30000
